Laboratory results published in patent US4018777A, “2-Substituted-5-alkyl resorcinols” (Abbott Laboratories, priority 1975, dated 1977).

Experiments:
[1] = system: pain threshold to radiant heat on tail (rat tail flick); assay: Analgesic activity, rat tail flick (RTF); assay type: in vivo, rat (male Sprague-Dawley); settings: oral, 2 hours after dosing
Experimental: (§1) The compounds of this invention are useful as analgesic agents, tranquilizers, sedative-hypnotics and anticonvulsants. The compounds are effective at dosages generally of from 1 to 10 mg./kg. of body weight daily. The analgesic activity was established in the standard mouse writhing test [Whittle, Brit. J. Pharmacol., 22, 296 (1964)] and confirmed in the hot plate assay [Woolfe, G. and McDonald, A. J., J. Pharmacol, Exper. Therap., 80, 300 (1944)] and the rat tail flick test.
In testing for analgesic activity by the rat tail flick method described by [F. E. D'Amour and D. L. Smith, J Pharmcol. Exp. Ther. 72, 74 (1941)], the method was modified as follows. Groups of male Sprague-Dawley rats weighing 140-170 g. are prepared by blackening their tails with India ink. Radiant heat is focused on their tails and adjusted so that the normal pain threshholds (time in seconds until an escape response or tail flick occurs) are in the range of 8 to 10 seconds. This is followed by oral administration of the test compound and hourly measurements of the animals' pain threshholds. The analgesic effects are listed in Table I as percent increase over initial pain threshhold 2 hours after dosing, or ED50's.

[2] = system: acetic acid-induced writhing in mice; assay: Analgesic activity, acetic acid writhing test (W); assay type: in vivo, mouse (Swiss-Webster female)
Experimental: as §1
In testing for the analgesic effect of the present compounds, the acetic acid writhing test was made as that described by [B. A. Whittle, Brit. J. Pharmacol 22, 246 (1964)]. Groups of Swiss-Webster female mice were given oral doses of the drug or control vehicle. The use of the intravenous dye was eliminated. One hour later they were given 0.4 ml. of 0.5% HOAc intraperitoneally. The number of writhes occurring in 20 minutes were counted starting 5 minutes after the injection of HOAc. Analgesic activity was reported as percent inhibition of writhing vs. controls or as ED50%.

[3] = system: audiogenic seizure in mice; assay: Anticonvulsant activity, audiogenic seizure test (mouse); assay type: in vivo, mouse (male O'Grady strain); settings: 1 hr.; for Anticonvulsant activity, audiogenic seizure: % protection: 100 mg./kg.
Description: Audiogenic Seizure Test (Mouse)
Male O'Grady strain mice (14 to 16 g.) especially bred for susceptibility to audiogenic seizures were used as subjects. The audiogenic apparatus consisted of a wooden box enclosing a metal container with two doorbells attached to the upper section. […] [Ref: N. P. Plotnikoff and D. M. Green, J, Pharmacol. Exp. Ther., 119, 294 (1957)].

[4] = system: methamphetamine (Desoxyn)-induced motor activity; assay: Antipsychotic activity (Rat Desoxyn antagonism), motor activity; assay type: in vivo; settings: oral, one hour before test; for Antipsychotic activity (Rat Desoxyn antagonism): 10 mg./kg., methamphetamine 3 mg./kg. sc, vs. Desoxyn treated controls
Experimental: Antipsychotic Activity (Rat Desoxyn Antagonism)
Antipsychotic activity (Desoxyn antagonism) was evaluated in motor activity chambers equipped with photocells. Groups of nine rats were given the compound orally one hour before the test and then administered methamphetamine (Desoxyn) 3 mg./kg. sc, and placed in the chamber. Changes in motor activity were recorded as counts from the photocells and are compared to Desoxyn treated controls.

Row | Compound | Analgesic activity, RTF: percent increase over initial pain threshhold ([1]; 40 mg./kg.) [%] | Antipsychotic activity (Rat Desoxyn antagonism) [4] [%] | Anticonvulsant activity, audiogenic seizure: % protection [3] [%] | also measured
1 | CCCCCC(C)C(C)c1cc(OC(C)=O)c(-c2cnccc2C(C)C)c(OC(C)=O)c1 (stereo not drawn) [Compound (IX), 1,3-Diacetyl-2-[4-Isopropyl-3-Pyridyl]-5-(3-Methyl-2-Octyl)Resorcinol] | 20 |  |  | Analgesic activity, W(PO): percent inhibition of writhing vs. controls ([2]; 80 mg./kg.): 30%
2 | C=C(C)c1ccncc1-c1c(OC(C)=O)cc(C(C)C(C)CCCCC)cc1OC(C)=O (stereo not drawn) [Compound (VII), 1,3-Diacetyl-2-[4-Isopropenyl-3-Pyridyl]-5-(3-Methyl-2-Octyl)Resorcinol] |  | 66 |  | Analgesic activity, RTF: percent increase over initial pain threshhold ([1]; 20 mg./kg.): 23%; ED50 ([3]; Mus musculus, protection, estimated (est.)): ~9 mg/kg
3 | C=C(C)c1ccncc1-c1c(O)cc(C(C)C(C)CCCCC)cc1O (stereo not drawn) [Compound (VIII), 2-[4-Isopropenyl-3-Pyridyl]-5-(3-Methyl-2-Octyl) Resorcinol] | 59 |  | 100 | Antipsychotic activity (Rat Desoxyn antagonism), result in words ([4]; dose not stated): Inactive
4 | CCCCCC(C)C(C)c1cc(O)c(-c2cnccc2C(C)C)c(O)c1 (stereo not drawn) [Compound (X), 2-[4-Isopropyl-3-pyridyl]-5-(3-methyl-2-octyl)resorcinol] | 53 |  | 60 | ED50 ([2]; Mus musculus, po): 44 mg/kg
5 | C=C(C)c1ccc(C)cc1-c1c(OC(C)=O)cc(C(C)C(C)CCCCC)cc1OC(C)=O (stereo not drawn) [Compound (XI), 1,3-Diacetyl-2-[(2-isopropenyl-5-methyl)phenyl]-5-(3-methyl-2-octyl)resorcinol] |  | 55 | 70 | Analgesic activity, W(PO): percent inhibition of writhing vs. controls ([2]; 10-40 mg./kg.): 40-50%
6 | CCCCCC(C)C(C)c1cc(O)c(-c2cc(C)ccc2C(C)C)c(O)c1 (stereo not drawn) [Compound (XII), 2-[(2-Isopropyl-5-methyl)phenyl]-5-(3-methyl-2-octyl)resorcinol] |  | 77 | 60 | Analgesic activity, RTF: percent increase over initial pain threshhold ([1]; 22 mg./kg.): 45%; Analgesic activity, W(PO): percent inhibition of writhing vs. controls ([2]; 40 mg./kg.): 47%
